Like-named read-outs stand apart in the source and are kept apart here.
Tests used:
T4 DNA ligase [1] = biological target: T1, T4 DNA ligase (Enterobacteria phage T4, UniProt P00970); format: biochemical; parameters: purchased NEB (New England Biolabs), Ipswich, Mass. #M0202
T1 sequence (P00970 1-487): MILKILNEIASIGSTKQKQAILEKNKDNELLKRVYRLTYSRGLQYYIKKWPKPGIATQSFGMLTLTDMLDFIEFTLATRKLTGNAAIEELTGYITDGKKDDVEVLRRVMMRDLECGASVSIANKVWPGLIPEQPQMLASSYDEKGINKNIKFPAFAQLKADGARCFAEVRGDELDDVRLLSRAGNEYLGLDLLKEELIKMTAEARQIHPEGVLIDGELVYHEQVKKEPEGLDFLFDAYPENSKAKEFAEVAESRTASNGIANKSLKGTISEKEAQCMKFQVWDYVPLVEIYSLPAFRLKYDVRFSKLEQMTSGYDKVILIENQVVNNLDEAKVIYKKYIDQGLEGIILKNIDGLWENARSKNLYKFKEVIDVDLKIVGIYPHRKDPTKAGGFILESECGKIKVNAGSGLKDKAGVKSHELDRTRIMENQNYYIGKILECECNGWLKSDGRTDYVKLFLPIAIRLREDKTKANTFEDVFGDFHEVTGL
Procedure: (§1) All were tested side-by-side using two ligation test systems which were: (a) cloning of a 500 bp amplicon made by Taq DNA polymerase into a T-tailed vector; and (b) recircularization of an AhdI-linearized plasmid. Both ligation test systems used DNA with single-base overhangs.
(§2) The reaction mixtures contained DNA at 50-100 ng and 1,2-PrD at different concentrations. 1 μl of regular concentration (NEB, Ipswich, Mass., #M0202; 400 units) or 1 μl of high concentration T4 DNA ligase (NEB, Ipswich, Mass., #M0202; 2000 units) was then added to a final volume of 21 μl in 1×T4 DNA Ligase Buffer (NEB, Ipwich, Mass., #B0202) or 1× Quick Ligase™ Buffer (NEB, Ipswich, Mass., #B2200).
(§3) A standard assay uses 100 ng DNA, 1 μl of T4 DNA ligase, 21 μl 1×T4 DNA ligase buffer and varying amounts of enhancer.
(§4) Ligation reactions were incubated for 10 min at room temperature (25° C.) unless otherwise stated, then placed on ice for 2 min. In some experiments the ligase was heat-killed by incubation at 65° C. for 20 min. The ligation reactions were analyzed by 1% agarose gel electrophoresis to identify DNA species and determine the efficiency of […].
(§5) A volume of 2 μl from each ligation reaction was incubated with 50 μl of chemically competent (NEB, Ipswich, Mass., #C2987I) or electrocompetent (NEB, Ipswich, Mass., #C2989K) DH5 alpha E. coli cells.
(§6) For chemically competent cell transformations, the cell-DNA mixture was incubated on ice for 30 min, heat-shocked at 42° C. for 30 sec, then returned to ice for 5 min. A volume of 950 μl SOC medium (2% vegetable peptone or Tryptone, 0.5% yeast extract, 10 mM NaCl, 2.5 mM KCl, 10 mM MgCl2, 10 mM MgSO4 and 20 mM glucose) was added to the cell-DNA mixture, followed by a one hr 37° C. outgrowth period with agitation. A volume of 25-50 μl of appropriately diluted cells in SOC was spread onto Rich Agar plates (composition per liter: 10 g soy peptone, 5 g yeast extract, 10 g NaCl, 1 g MgCl2-6H2O, 1 g dextrose, 15 grams agar) supplemented with 100 μg/ml ampicillin. Plates were inverted and incubated for 16 hrs at 37° C., followed by quantification of total colony numbers.

T4 DNA ligase [2] = biological target: T1, T4 DNA ligase; test: Cloning of a 500 bp amplicon made by Taq DNA polymerase into a T-tailed vector (ligation test system a); format: biochemical; parameters: purchased NEB (New England Biolabs), Ipswich, Mass. #M0202; conditions: no addition = 1-fold, single-base overhangs
Procedure: as §1, §2, §3, §4, §5, §6

ligase = conditions: Xiao et al. 2007; nick junctions in double-stranded DNA; cited from earlier work
T4 DNA ligase [3] = biological target: T1, T4 DNA ligase; conditions: Pheiffer et al. 1983; cited from earlier work
[4] = enhancer at 12%, no addition = 1-fold, single-base overhangs

OCCCO [1,3-PrD, 1,3-propanediol]
Recircularization Enhancement (T4 DNA ligase [1]; [4]): 9 fold | Cloning Enhancement (T4 DNA ligase [2]; enhancer at 12%): 7-fold

C[N+](C)(C)CC(=O)O [Betaine]
Recircularization Enhancement (T4 DNA ligase [1]; enhancer at 1.3M, no addition = 1-fold, single-base overhangs): 13-fold | Cloning Enhancement (T4 DNA ligase [2]; enhancer at 1.3M): 12-fold

C[S+](C)[O-] [DMSO, dimethyl sulfoxide]
Recircularization Enhancement (T4 DNA ligase [1]; enhancer at 6%, no addition = 1-fold, single-base overhangs): 9-fold | Cloning Enhancement (T4 DNA ligase [2]; enhancer at 6%): 12-fold | Effect on efficiency of ligation (ligase): inhibited the efficiency of the ligation reaction at nick junctions in double-stranded DNA

CCO [Ethanol]
Recircularization Enhancement (T4 DNA ligase [1]): 9-fold | Cloning Enhancement (T4 DNA ligase [2]; enhancer at 12%): 25-fold

OCCO [Ethylene glycol]
Recircularization Enhancement (T4 DNA ligase [1]): 8-fold | Cloning Enhancement (T4 DNA ligase [2]; enhancer at 12%): 10-fold

OCC(O)CO [Glycerol]
Recircularization Enhancement (T4 DNA ligase [1]; [4]): 5-fold | Cloning Enhancement (T4 DNA ligase [2]; enhancer at 12%): 4-fold | Effect on efficiency of ligation (ligase): inhibited the efficiency of the ligation reaction at nick junctions in double-stranded DNA

CC(C)O [Isopropanol]
Recircularization Enhancement (T4 DNA ligase [1]; [4]): 10-fold | Cloning Enhancement (T4 DNA ligase [2]; enhancer at 12%): 16-fold

NC=O [formamide, reference compound]
Effect on efficiency of ligation (ligase): inhibited the efficiency of the ligation reaction at nick junctions in double-stranded DNA

PEG 200
Effect on blunt-end ligation (T4 DNA ligase [3]): little effect on ligation

PEG 400
Effect on blunt-end ligation (T4 DNA ligase [3]): little effect on ligation

Reference: US9499811B2, “Ligation enhancement” (New England Biolabs, Inc., priority 2011, dated 2016)
